Assay results from patent publication EP0654028B1, “3- AND 5-SUBSTITUTED 1,2,3,4-OXATRIAZOLE-5-IMINE COMPOUNDS, A PROCESS FOR THE PREPARATION THEREOF, A PHARMACEUTICAL PREPARATION CONTAINING SAID COMPOUNDS AND THE USE OF SAID COMPOUNDS FOR THE PREPARATION OF MEDICAMENTS” (A/S GEA Farmaceutisk Fabrik, priority 1992, dated 1994).

Each compound was assayed on blood platelets (thrombocytes) (assay: Inhibition of ADP-induced blood platelet aggregation in platelet-rich plasma (aggregometer measurement, Born)). Conditions: not given.
Type: cell-based, healthy testees

Row | Compound | inhibition of blood platelet aggregation (result in words)
1 | O=[N+]([O-])OCC(CO[N+](=O)[O-])O[N+](=O)[O-] [GTN, nitroglycerine, reference compound] | inactive

Same assay, conditions: PRP from citrate stabilized venous blood, 37°C, test substance incubated three minutes, ADP 2 to 4 µM as pro-aggregating substance; linear regression; read-out: IC₅₀

Row | IC50 [nM] | Compound
2 | 370 | CC(=O)Nc1nc(C)c(S(=O)(=O)[N-]c2n[n+](-c3cccc(Cl)c3C)no2)s1 [Example 2, 3-(3-chloro-2-methylphenyl)-1,2,3,4-oxatriazole-5-(N-2-acetamido-4-methyl-5-thiazolesulphamoyl)imine]
3 | 1010 | CC(=O)Nc1ccc(S(=O)(=O)[N-]c2n[n+](-c3cccc(Cl)c3C)no2)cc1 [Example 3, 3-(3-chloro-2-methylphenyl)-1,2,3,4-oxatriazole-5-(N-4-acetylaminophenylsulphamoyl)imine]
4 | 80 | Cc1c(Cl)cccc1-[n+]1noc([N-]S(=O)(=O)C[C@]23CCC(CC2=O)C3(C)C)n1 [Example 4, 3-(3-chloro-2-methylphenyl)-1,2,3,4-oxatriazole-5-(N-(1S)-(+)-10-camphorylsulphamoyl)imine]
5 | 2980 | CCOC(=O)c1ccc(NC(=O)[N-]c2n[n+](-c3cccc(Cl)c3C)no2)cc1 [Example 5, 3-(3-chloro-2-methylphenyl)-1,2,3,4-oxatriazole-5-(N-4-carbethoxyphenylcarbamoyl)imine]
6 | 160 | CCOC(=O)NC(=O)[N-]c1n[n+](-c2cccc(Cl)c2C)no1 [Example 7, 3-(3-chloro-2-methylphenyl)-1,2,3,4-oxatriazole-5-(N-carbethoxy-carbamoyl)imine]
7 | 7900 | CCOC(=O)C(Cc1ccccc1)NC(=O)[N-]c1n[n+](-c2cccc(Cl)c2C)no1 (stereo not shown) [Example 9, 3-(3-chloro-2-methylphenyl)-1,2,3,4-oxatriazole-5(N-2-carbamoyl-3-phenylpropionic acid ethyl ester)imine]
8 | 2310 | COC(=O)C(C)NC(=O)[N-]c1n[n+](-c2cccc(Cl)c2C)no1 (stereo not shown) [Example 10, 3-(3-chloro-2-methylpheny1)-1,2,3,4-oxatriazole-5-(N-2-carbamoylpropionic acid methyl ester)imine]
9 | 3900 | [NH-]c1c[n+](N2CCOCC2)no1 [SIN-1, reference compound]

Row | Compound | IC50 [nM]
10 | Cc1c(Cl)cccc1-[n+]1noc([N-]C(=O)NS(=O)(=O)c2ccccc2)n1 [Example 1, 3-(3-chloro-2-methylphenyl)-1,2,3,4-oxatriazole-5-(N-phenylsulphonylcarbamoyl) imine] | 490
11 | CCOC(=O)CNC(=O)[N-]c1n[n+](-c2cccc(Cl)c2C)no1 [Example 8, 3-(3-chloro-2-methylphenyl)-1,2,3,4-oxatriazole-5-(N-carbethoxymethylcarbamoyl)imine] | 7600

Same assay, conditions: read-out: IC₅₀

Row | Compound | IC50 [nM]
12 | COc1ccc(S(=O)(=O)NC(=O)[N-]c2n[n+](-c3cccc(Cl)c3C)no2)cc1 [Example 6, 3-(3-chloro-2-methylphenyl)-1,2,3,4-oxatriazole-5-(N-4-methoxy-phenylsulphonylcarbamoyl)imine] | 670
13 | O=[N+]([O-])OCC(CO[N+](=O)[O-])O[N+](=O)[O-] [GTN, nitroglycerine, reference compound] | 100000
